Some results are limits rather than exact numbers.

In the first test the target is human TYK2 (JH2domain-pseudokinase) (Homo sapiens (Human), UniProt P29597). Kind of test: TYK2 JH2 Domain Binding Assay (KINOMEscan). To be noted: 11-point 3-fold dilution, top concentration 30,000 nM, duplicate; read-out: hTYK2_JH2_Binding (Kd; nM). The method, then: Binding constants for compounds of the present invention against the JH2 domain were determined by the following protocol for a KINOMEscan® assay (DiscoveRx). A fusion protein of a partial length construct of human TYK2 (JH2domain-pseudokinase) (amino acids G556 to D888 based on reference sequence NP_003322.3) and the DNA binding domain of NFkB was expressed in transiently transfected HEK293 cells. From these HEK 293 cells, extracts were prepared in M-PER extraction buffer (Pierce) in the presence of Protease Inhibitor Cocktail Complete (Roche) and Phosphatase Inhibitor Cocktail Set II (Merck) per manufacturers' instructions. The TYK2(JH2domain-pseudokinase) fusion protein was labeled with a chimeric double-stranded DNA tag containing the NFkB binding site (5′-[…]-3′) fused to an amplicon for qPCR readout, which was added directly to the expression extract (the final concentration of DNA-tag in the binding reaction is 0.1 nM).
Chain of human TYK2 (JH2domain-pseudokinase) (P29597 556-888): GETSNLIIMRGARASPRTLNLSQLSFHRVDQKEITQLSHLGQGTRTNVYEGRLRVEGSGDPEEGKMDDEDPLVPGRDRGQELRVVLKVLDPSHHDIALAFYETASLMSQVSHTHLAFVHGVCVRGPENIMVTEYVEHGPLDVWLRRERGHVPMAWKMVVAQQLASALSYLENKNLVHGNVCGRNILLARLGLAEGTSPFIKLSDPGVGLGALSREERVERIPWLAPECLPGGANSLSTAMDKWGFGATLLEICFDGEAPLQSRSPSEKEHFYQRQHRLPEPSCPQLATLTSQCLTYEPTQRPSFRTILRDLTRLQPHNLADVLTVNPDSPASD
The liganded beads were blocked with excess biotin and washed with blocking buffer (SeaBlock (Pierce), 1% BSA, 0.05% Tween 20, 1 mM DTT) to remove unbound ligand and to reduce nonspecific binding.
Extracts were loaded with DNA-tag and diluted into the binding reaction in a two step process. First extracts were diluted 1:100 in 1× binding buffer (PBS/0.05% Tween 20/10 mM DTT/0.1% BSA/2 μg/ml sonicated salmon sperm DNA) containing 10 nM DNA-tag. This dilution was allowed to equilibrate at room temperature for 15 minutes and then subsequently diluted 1:100 in 1× binding buffer. […] Kds were determined using an 11-point 3-fold compound dilution series with three DMSO control points. […] The compounds were then diluted directly into the assays such that the final concentration of DMSO was 0.9%. All reactions performed in polypropylene 384-well plates. Each was a final volume of 0.02 mL. Assays were incubated with shaking for 1 hour at room temperature. Then the beads were pelleted and washed with wash buffer (lx PBS, 0.05% Tween 20) to remove displaced kinase and test compound. […] The qPCR protocol consisted of a 10 minute hot start at 95° C., followed by 35 cycles of 95° C. for 15 seconds, 60° C. for 1 minute.
Kds were determined using an 11-point 3-fold compound dilution series with three DMSO control points. […] The compounds were then diluted directly into the assays such that the final concentration of DMSO was 0.9%. The Kds were determined using a compound top concentration of 30,000 nM. Kd measurements were performed in duplicate.
Binding constants (Kds) were calculated with a standard dose-response curve using the Hill equation: […]
The Hill Slope was set to −1.
In the case of `CNc1cc(Nc2cccn(C3CC(F)(F)C3)c2=O)nc2c(C(=O)N[C@H]3CCC[C@]3(C)O)cnn12` [Compound I-90, 5-((1-(3,3-Difluorocyclobutyl)-2-oxo-1,2-dihydropyridin-3-yl)amino)-N-((1S,2S)-2-hydroxy-2-methylcyclopentyl)-7-(methylamino)pyrazolo[1,5-a]pyrimidine-3-carboxamide], the Kd was greater than 10 nM. On to `CNc1cc(-c2cnc3n(CC(=O)N(C)C)cccc2-3)nc2c(C(=O)NC3CC[C@@H]3OC)cnn12` (some centres unmarked) [Compound I-961], for which the Kd was less than 0.2 nM. Same read-out and setting: for `CNc1cc(Nc2cccn([C@@H]3CC[C@@H]3O)c2=O)nc2c(C(=O)N[C@H]3CCC[C@H](OC)C3)cnn12` [Compound I-100, 5-((1-((1R,2S)-2-Hydroxycyclobutyl)-2-oxo-1,2-dihydropyridin-3-yl)amino)-N-((1S,3S)-3-methoxycyclohexyl)-7-(methylamino)pyrazolo[1,5-a]pyrimidine-3-carboxamide] the value was 0.2 to 1 nM. The same measure, in the same setting: next, `CNc1cc(Nc2cccn([C@@H]3C[C@H]3F)c2=O)nc2c(C(=O)N[C@H]3CC[C@@H](O)C3)cnn12` [Compound I-43, 5-((1-((1R,2R)-2-Fluorocyclopropyl)-2-oxo-1,2-dihydropyridin-3-yl)amino)-N-((1S,3R)-3-hydroxycyclopentyl)-7-(methylamino)pyrazolo[1,5-a]pyrimidine-3-carboxamide]: 0.2 to 1 nM; `CNc1cc(Nc2cccn([C@H]3CC[C@@H]3O)c2=O)nc2c(C(=O)N[C@@H]3CCC[C@@H](OC)C3)cnn12` [Compound I-96, 5-((1-((1S,2S)-2-Hydroxycyclobutyl)-2-oxo-1,2-dihydropyridin-3-yl)amino)-N-((1R,3R)-3-methoxycyclohexyl)-7-(methylamino)pyrazolo[1,5-a]pyrimidine-3-carboxamide]: 1 to 10 nM. Still for that read-out and setting: next, `CNc1cc(Nc2cccn(-c3ocnc3C)c2=O)nc2c(C(=O)N[C@@H]3CC[C@H]3F)cnn12` [Compound I-187]: less than 0.2 nM; `CNc1cc(Nc2cccn([C@H]3C[C@@H](OC)C3)c2=O)nc2c(C(=O)NC3CC3)cnn12` [Compound I-5, N-Cyclopropyl-5-((1-((1s,3s)-3-methoxycyclobutyl)-2-oxo-1,2-dihydropyridin-3-yl)amino)-7-(methylamino)pyrazolo[1,5-a]pyrimidine-3-carboxamide]: less than 0.2 nM. For the compound `CNc1ccc(-c2cc(NC)n3ncc(C(=O)NC4CC4)c3n2)n2ccnc12` [Compound I-478, N-Cyclopropyl-7-(methylamino)-5-(8-(methylamino)imidazo[1,2-a]pyridin-5-yl)pyrazolo[1,5-a]pyrimidine-3-carboxamide], the Kd was in the range of 0.2 to 1 nM. Same read-out and setting: next, `CNc1cc(Nc2cccn([C@H]3C[C@@H]3F)c2=O)nc2c(C(=O)N[C@@H]3CC[C@H](O)C3)cnn12` [Compound I-44, 5-((1-((1S,2S)-2-Fluorocyclopropyl)-2-oxo-1,2-dihydropyridin-3-yl)amino)-N-((1R,3S)-3-hydroxycyclopentyl)-7-(methylamino)pyrazolo[1,5-a]pyrimidine-3-carboxamide]: 0.2 to 1 nM. With `CNc1cc(Nc2cccn([C@@H]3CCC[C@@H]3O)c2=O)nc2c(C(=O)N[C@H]3CC[C@H](OC)C3)cnn12` [Compound I-79, 5-((1-((1R,2S)-2-Hydroxycyclopentyl)-2-oxo-1,2-dihydropyridin-3-yl)amino)-N-((1S,3S)-3-methoxycyclopentyl)-7-(methylamino)pyrazolo[1,5-a]pyrimidine-3-carboxamide], the Kd was 0.2 to 1 nM. `O=C(N[C@@H]1C[C@@H]1F)c1cnn2c3c(c(Nc4cccn(C5CCOCC5)c4=O)nc12)OCCN3` [Compound I-751, N-((1R,2S)-2-Fluorocyclopropyl)-5-((2-oxo-1-(tetrahydro-2H-pyran-4-yl)-1,2-dihydropyridin-3-yl)amino)-2,3-dihydro-1H-pyrazolo[5′,1′:2,3]pyrimido[5,4-b][1,4]oxazine-7-carboxamide]: the Kd is less than 0.2 nM. As to `CNc1cc(-c2cnc3n(CC(=O)N4CC5(COC5)C4)cccc2-3)nc2c(C(=O)N[C@@H]3CC[C@H]3OC)cnn12` [Compound I-1013], the Kd was less than 0.2 nM. Same read-out and setting: for `CNc1cc(Nc2cccn([C@H]3CC[C@H]3O)c2=O)nc2c(C(=O)N[C@@H]3CCC[C@@H](OC)C3)cnn12` [Compound I-104, 5-((1-((1S,2R)-2-Hydroxycyclobutyl)-2-oxo-1,2-dihydropyridin-3-yl)amino)-N-((1R,3R)-3-methoxycyclohexyl)-7-(methylamino)pyrazolo[1,5-a]pyrimidine-3-carboxamide] the value was 1 to 10 nM; for `CNc1cc(Nc2cccn(C3CCOCC3)c2=O)nc2c(C(=O)N[C@@H]3C[C@H]3OC)cnn12` [Compound I-27, N-((1R,2R)-2-Methoxycyclopropyl)-7-(methylamino)-5-((2-oxo-1-(tetrahydro-2H-pyran-4-yl)-1,2-dihydropyridin-3-yl)amino)pyrazolo[1,5-a]pyrimidine-3-carboxamide], less than 0.2 nM. Consider `CNc1cc(Nc2cccn([C@H]3C[C@H](F)C3)c2=O)nc2c(C(=O)N[C@@H]3C[C@H]3OC)cnn12` [Compound I-137], for which the Kd was less than 0.2 nM. For `CNc1cc(Nc2cccn([C@H]3[C@@H]4COC[C@@H]43)c2=O)nc2c(C(=O)N[C@@H]3CCC3(F)F)cnn12` [Compound I-308], the Kd was less than 0.2 nM. Regarding `CNc1cc(Nc2cccn([C@H]3CC[C@H]3O)c2=O)nc2c(C(=O)N[C@H]3CC[C@H](OC)C3)cnn12` [Compound I-86, 5-((1-((1S,2R)-2-Hydroxycyclobutyl)-2-oxo-1,2-dihydropyridin-3-yl)amino)-N-((1S,3S)-3-methoxycyclopentyl)-7-(methylamino)pyrazolo[1,5-a]pyrimidine-3-carboxamide], the Kd was 1 to 10 nM.

Turning to `CNc1cc(-c2cn([C@H]3CCCOC3)c3ncccc23)nc2c(C(=O)N[C@@H]3COC[C@@H]3O)cnn12` [Compound I-61, N-((3R,4R)-4-Hydroxytetrahydrofuran-3-yl)-7-(methylamino)-5-(1-((S)-tetrahydro-2H-pyran-3-yl)-1H-pyrrolo[2,3-b]pyridin-3-yl)pyrazolo[1,5-a]pyrimidine-3-carboxamide], the Kd lay in the range of 1 to 10 nM. As to `O=C(N[C@H]1CCC1(F)F)c1cnn2c3c(c(Nc4cccn([C@H]5[C@@H]6COC[C@@H]65)c4=O)nc12)OCCN3` [Compound I-770], the Kd is greater than 10 nM. With `CNc1cc(-c2cn([C@H]3CO[C@@H](COC)C3)c3ncccc23)nc2c(C(=O)N[C@@H]3CC[C@H]3OC)cnn12` [Compound I-1019, N-((1R,2R)-2-methoxycyclobutyl)-5-(1-(5-(methoxymethyl)tetrahydrofuran-3-yl)-1H-pyrrolo[2,3-b]pyridin-3-yl)-7-(methylamino)pyrazolo[1,5-a]pyrimidine-3-carboxamide], the Kd lay in the range of 1 to 10 nM. Regarding `CC(C)n1cccc(Nc2nc3c(C(=O)N[C@@H]4CCC4(F)F)cnn3c3c2OCCN3)c1=O` [Compound I-767], the Kd was less than 0.2 nM.

The test system of another test is IL-12 induced STAT4 phosphorlyation mediated by TYK2/JAK2. Kind of test: IL-12 Induced pSTAT4 in Human PBMC. Type of test: cell-based. As to conditions: 1.7 ng/mL IL-12 for 30 minutes. An outline of the steps: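 Thawed human PBMC pre-incubated with compound 1 hr at 37° C (0.1% DMSO final), then stimulated 30 minutes with IL-12 at 1.7 ng/mL final. pSTAT4 and total STAT4 measured in cell lysates with MSD reagents.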
`CNc1cc(-c2cn([C@H]3COC[C@@H]3OC)c3ncccc23)nc2c(C(=O)N[C@H]3CC[C@H]3F)cnn12` [Compound I-529]: the IC50 is less than 0.1 µM.

The compound `CNc1cc(Nc2cccn([C@H]3C[C@H](OC)C3)c2=O)nc2c(C(=O)NC3CC[C@@H]3F)cnn12` (mixture of isomers) [Compound I-176] registered an IC50 of less than 0.1 µM. Consider `CNc1cc(-c2cn([C@@H]3CC(=O)N(C4CCOCC4)C3)c3ncccc23)nc2c(C(=O)N[C@H]3CC[C@@H]3OC)cnn12` [Compound I-1028], for which the IC50 lay within 0.1 to 0.5 µM. In the case of `CNc1cc(-c2cn(C3CN(C)C3)c3ncccc23)nc2c(C(=O)NC3CCC3(F)F)cnn12` (centres unmarked) [Compound I-676], the IC50 was less than 0.1 µM.

Still in this test, the particulars now being: 0.5 h, 1.7 ng/mL IL-12 for 30 minutes.
With `CNc1cc(Nc2cccn([C@H]3C[C@@H]3F)c2=O)nc2c(C(=O)N[C@H]3CC[C@H]3O)cnn12` [Compound I-12, 5-((1-((1S,2S)-2-Fluorocyclopropyl)-2-oxo-1,2-dihydropyridin-3-yl)amino)-N-((1S,2R)-2-hydroxycyclobutyl)-7-(methylamino)pyrazolo[1,5-a]pyrimidine-3-carboxamide], the IC50 was less than 0.1 µM.

By Kd is commonly meant the constant that tells how readily two partners part at equilibrium. Usually IC50 stands for the concentration needed to halve the response being measured. Read a high IC50 as a need for much substance.

Source of the values: patent US11414431B2, “Substituted pyrazolo[1,5-a]pyrimidines as TYK2 inhibitors” (Nimbus Lakshmi, Inc., priority 2018, dated 2022).
